Measurements: ChEMBL document CHEMBL1201862, “PubChem BioAssay data set” (2004)
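Cultured in 96-well plates, cells were exposed to test compound for 48 hours across five concentrations. GI50: concentration for 50% inhibition of growth.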 Activity calls are given as the source filed them. Rule as the data show it: active = GI50 up to about 1.1 µM and inactive = higher.

Legend:
Assay in all cases: NCI anticancer screen, dose series, 48 h
SNB-19 = test system: SNB-19
SF-295 = test system: SF-295
HL-60 = test system: HL-60
RPMI-8226 = test system: RPMI-8226
IGROV-1 = test system: IGROV-1
CAKI-1 = test system: CAKI-1
XF498 = test system: XF498
SW-620 = test system: SW-620
LXFL 529 = test system: LXFL 529
HOP-92 = test system: HOP-92
UACC-257 = test system: UACC-257
ACHN = test system: ACHN
COLO 205 = test system: COLO 205
HCT-116 = test system: HCT-116
NCI-H23 = test system: NCI-H23
A549 = test system: A549
NCI-H522 = test system: NCI-H522
OVCAR-5 = test system: OVCAR-5
NCI-H226 = test system: NCI-H226
HT-29 = test system: HT-29
DLD-1 = test system: DLD-1
OVCAR-3 = test system: OVCAR-3
OVCAR-4 = test system: OVCAR-4
NCI-H460 = test system: NCI-H460
A498 = test system: A498
OVCAR-8 = test system: OVCAR-8
Malme-3M = test system: Malme-3M
UO-31 = test system: UO-31
LOX IMVI = test system: LOX IMVI
EKVX = test system: EKVX
SK-OV-3 = test system: SK-OV-3
M14 = test system: M14
TK-10 = test system: TK-10
HOP-18 = test system: HOP-18
RXF 393 = test system: RXF 393
DMS-114 = test system: DMS-114
SF-268 = test system: SF-268
SR = test system: SR
SNB-78 = test system: SNB-78
SNB-75 = test system: SNB-75
U-251 = test system: U-251
DMS-273 = test system: DMS-273
SK-MEL-28 = test system: SK-MEL-28
KM-20L2 = test system: KM-20L2
SF-539 = test system: SF-539
MOLT-4 = test system: MOLT-4
HOP-62 = test system: HOP-62
KM12 = test system: KM12
UACC-62 = test system: UACC-62
SN12C = test system: SN12C
HCC 2998 = test system: HCC 2998
K562 = test system: K562
SK-MEL-5 = test system: SK-MEL-5
786-0 = test system: 786-0
SK-MEL-2 = test system: SK-MEL-2
HCT-15 = test system: HCT-15
CCRF-CEM = test system: CCRF-CEM
M19-MEL = test system: M19-MEL
MCF7 = test system: MCF7
NCI/ADR-RES = test system: NCI/ADR-RES

`NC(=O)c1c([N+](=O)[O-])cc(C(F)(F)F)cc1[N+](=O)[O-]` was tested, and the GI50 (SNB-19) was > 100 µM (inactive), the GI50 (SF-295) was > 100 µM (inactive) and the GI50 (HL-60) was 18 µM (inactive). The GI50 (RPMI-8226) was > 100 µM (inactive), the GI50 (IGROV-1) was > 100 µM (inactive) and the GI50 (CAKI-1) was > 100 µM (inactive). For the same molecule, the GI50 (XF498) was > 100 µM (inactive), the GI50 (SW-620) was 44.5 µM (inactive) and the GI50 (LXFL 529) was > 100 µM (inactive). For the same molecule, the GI50 (HOP-92) was > 100 µM (inactive), the GI50 (UACC-257) was 27 µM (inactive) and the GI50 (ACHN) was > 100 µM (inactive). The GI50 (COLO 205) was 26.1 µM (inactive), the GI50 (HCT-116) was 39 µM (inactive) and the GI50 (NCI-H23) was 29.8 µM (inactive). The GI50 (A549) was 99.5 µM (inactive), the GI50 (NCI-H522) was 21.5 µM (inactive) and the GI50 (OVCAR-5) was > 100 µM (inactive). The GI50 (NCI-H226) was > 100 µM (inactive), the GI50 (HT-29) was 41.7 µM (inactive) and the GI50 (DLD-1) was > 100 µM (inactive). The GI50 (OVCAR-3) was 24.9 µM (inactive), the GI50 (OVCAR-4) was 68.2 µM (inactive) and the GI50 (NCI-H460) was 47.4 µM (inactive). For the same molecule, the GI50 (A498) was > 100 µM (inactive), the GI50 (OVCAR-8) was > 100 µM (inactive) and the GI50 (Malme-3M) was 24.4 µM (inactive). For the same molecule, the GI50 (UO-31) was > 100 µM (inactive), the GI50 (LOX IMVI) was 51.2 µM (inactive) and the GI50 (EKVX) was > 100 µM (inactive). The GI50 (SK-OV-3) was > 100 µM (inactive), the GI50 (M14) was 76.6 µM (inactive) and the GI50 (TK-10) was > 100 µM (inactive). For the same molecule, the GI50 (HOP-18) was > 100 µM (inactive), the GI50 (RXF 393) was > 100 µM (inactive) and the GI50 (DMS-114) was 26.9 µM (inactive). The GI50 (SF-268) was > 100 µM (inactive), the GI50 (SR) was > 100 µM (inactive) and the GI50 (SNB-78) was > 100 µM (inactive). The GI50 (SNB-75) was > 100 µM (inactive), the GI50 (U-251) was > 100 µM (inactive) and the GI50 (DMS-273) was 35.1 µM (inactive). For the same molecule, the GI50 (SK-MEL-28) was > 100 µM (inactive), the GI50 (KM-20L2) was 33.3 µM (inactive) and the GI50 (SF-539) was 45.7 µM (inactive). The GI50 (MOLT-4) was > 100 µM (inactive), the GI50 (HOP-62) was > 100 µM (inactive) and the GI50 (KM12) was 44 µM (inactive). For the same molecule, the GI50 (UACC-62) was 35.1 µM (inactive), the GI50 (SN12C) was 52.4 µM (inactive) and the GI50 (HCC 2998) was 38.4 µM (inactive). For the same molecule, the GI50 (K562) was 86.1 µM (inactive), the GI50 (SK-MEL-5) was 50 µM (inactive) and the GI50 (786-0) was > 100 µM (inactive).
In the case of `Cc1[nH]c(=O)[nH]c(=O)c1/C=C/C(=O)NC(CO)C[S+]([O-])C[S+](C)[O-]` (stereo not drawn), the GI50 (SNB-19) is reported as 13.2 µM (inactive), the GI50 (SF-295) is reported as 15.6 µM (inactive) and the GI50 (HL-60) is reported as 16.7 µM (inactive). For the same molecule, the GI50 (RPMI-8226) was 34.8 µM (inactive), the GI50 (IGROV-1) was 12.6 µM (inactive) and the GI50 (CAKI-1) was 4.93 µM (inactive). For the same molecule, the GI50 (XF498) was 1.74 µM (inactive), the GI50 (SW-620) was 38.6 µM (inactive) and the GI50 (HOP-92) was 9.73 µM (inactive). The GI50 (UACC-257) was 21.8 µM (inactive), the GI50 (COLO 205) was 30 µM (inactive) and the GI50 (HCT-116) was 19.3 µM (inactive). For the same molecule, the GI50 (NCI-H23) was 10.8 µM (inactive), the GI50 (A549) was 24.4 µM (inactive) and the GI50 (NCI-H522) was 9.51 µM (inactive). For the same molecule, the GI50 (OVCAR-5) was 135 µM (inactive), the GI50 (NCI-H226) was 17.5 µM (inactive) and the GI50 (HT-29) was 125 µM (inactive). For the same molecule, the GI50 (SK-MEL-2) was 13.5 µM (inactive), the GI50 (DLD-1) was 20.4 µM (inactive) and the GI50 (OVCAR-3) was 7.87 µM (inactive). The GI50 (OVCAR-4) was 2.17 µM (inactive), the GI50 (NCI-H460) was 16.6 µM (inactive) and the GI50 (A498) was 21.8 µM (inactive). For the same molecule, the GI50 (OVCAR-8) was 28.4 µM (inactive), the GI50 (Malme-3M) was 12.2 µM (inactive) and the GI50 (UO-31) was 23.7 µM (inactive). The GI50 (LOX IMVI) was 15.5 µM (inactive), the GI50 (EKVX) was 16.4 µM (inactive) and the GI50 (SK-OV-3) was 20.5 µM (inactive). For the same molecule, the GI50 (HOP-18) was 59.3 µM (inactive), the GI50 (RXF 393) was 20.8 µM (inactive) and the GI50 (DMS-114) was 11.1 µM (inactive). The GI50 (SF-268) was 4.17 µM (inactive), the GI50 (SNB-78) was 11.7 µM (inactive) and the GI50 (SNB-75) was 7.18 µM (inactive). The GI50 (U-251) was 3.8 µM (inactive), the GI50 (DMS-273) was 21 µM (inactive) and the GI50 (SK-MEL-28) was 17.8 µM (inactive). For the same molecule, the GI50 (KM-20L2) was 36.9 µM (inactive), the GI50 (SF-539) was 13.9 µM (inactive) and the GI50 (MOLT-4) was 18.7 µM (inactive). The GI50 (HCT-15) was 44.3 µM, the GI50 (HOP-62) was 16.6 µM (inactive) and the GI50 (CCRF-CEM) was 14.6 µM (inactive). For the same molecule, the GI50 (KM12) was 18.4 µM (inactive), the GI50 (M19-MEL) was 15 µM (inactive) and the GI50 (UACC-62) was 12.5 µM (inactive). For the same molecule, the GI50 (SN12C) was 14.2 µM (inactive), the GI50 (HCC 2998) was 9.62 µM (inactive) and the GI50 (K562) was 19.5 µM (inactive). For the same molecule, the GI50 (SK-MEL-5) was 18 µM (inactive), the GI50 (MCF7) was 20.9 µM (inactive) and the GI50 (NCI/ADR-RES) was 24.8 µM (inactive).
